Data on 19 compounds can be found in ChEMBL document CHEMBL1137049 (Bioorg Med Chem Lett, 2004).

The target in experiment [1] is T1, Histamine H3 receptor (Homo sapiens, UniProt Q9Y5N1). As to the kind of experiment: Effective concentration required against human histamine H3 receptor was determined by the inhibition of the cAMP stimulated beta-galactosidase transcription in SK-N-MC cells. Type of experiment: cell-based.
In experiment [2] the target is T1, Histamine H3 receptor. As to the kind of experiment: Intrinsic activity against human histamine H3 receptor.
Experiment [3] deals with T1, Histamine H3 receptor. As to the kind of experiment: Binding affinity towards human histamine H3 receptor was determined by [3H]Na-methylhistamine binding to SK-N-MC cell membranes.
The next experiment deals with Histamine H4 receptor (Homo sapiens, UniProt Q9H3N8). As to the kind of experiment: Binding affinity towards human histamine H4 receptor was determined by [3H]Na-methylhistamine binding to SK-N-MC cell membranes.

In general, EC50 refers to the midpoint of the concentration-response curve. Low values mean greater potency, high ones weaker potency. Usually Ki stands for a measure of affinity in units of concentration, obtained from inhibition or displacement. A high value points to a looser hold on the target.

T1 sequence (Q9Y5N1 whole entry): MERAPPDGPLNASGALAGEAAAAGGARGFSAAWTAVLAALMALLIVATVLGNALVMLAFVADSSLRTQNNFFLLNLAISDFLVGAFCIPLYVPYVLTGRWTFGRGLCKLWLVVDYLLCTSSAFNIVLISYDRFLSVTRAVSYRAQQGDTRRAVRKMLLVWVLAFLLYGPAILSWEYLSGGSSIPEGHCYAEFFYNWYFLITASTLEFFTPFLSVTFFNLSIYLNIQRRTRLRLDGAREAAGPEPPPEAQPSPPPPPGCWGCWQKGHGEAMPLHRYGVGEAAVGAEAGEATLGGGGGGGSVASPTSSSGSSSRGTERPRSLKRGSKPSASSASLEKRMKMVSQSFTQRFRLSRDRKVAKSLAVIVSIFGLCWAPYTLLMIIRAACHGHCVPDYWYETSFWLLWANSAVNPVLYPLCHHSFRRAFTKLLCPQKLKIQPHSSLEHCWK
Histamine H4 receptor, sequence (Q9H3N8 whole entry): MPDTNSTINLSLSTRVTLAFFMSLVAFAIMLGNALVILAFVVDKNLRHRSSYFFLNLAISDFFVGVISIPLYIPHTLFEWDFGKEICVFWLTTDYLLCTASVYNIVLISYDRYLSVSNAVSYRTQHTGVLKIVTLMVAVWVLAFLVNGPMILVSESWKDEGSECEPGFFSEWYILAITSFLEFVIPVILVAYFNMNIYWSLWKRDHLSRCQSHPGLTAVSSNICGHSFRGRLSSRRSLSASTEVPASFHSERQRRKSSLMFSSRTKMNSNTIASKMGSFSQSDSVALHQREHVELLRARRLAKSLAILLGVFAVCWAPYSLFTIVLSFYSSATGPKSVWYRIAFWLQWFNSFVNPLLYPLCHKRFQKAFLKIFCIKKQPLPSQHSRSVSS

`CN1CCC(C(=O)c2cc3cc(Cl)ccc3[nH]2)CC1`: the EC50 on Histamine H3 receptor [1] was 1 µM. In addition, on Histamine H3 receptor [2], the Intrinsic activity was -0.5. The values for the Ki at Histamine H3 receptor [3] and at Histamine H4 receptor were 3.16 µM and 0.2 µM, respectively.

In the case of `CN(C)CCN(C)C(=O)c1nc2cc(Cl)ccc2[nH]1`, affinity at Histamine H4 receptor was put at a Ki of 25.1 µM.

As to `CN1CCN(C(=O)c2cc3cc(I)ccc3[nH]2)CC1`, on Histamine H3 receptor [1], a half-maximal effect (EC50) was put at 3.16 µM. The same compound had an Intrinsic activity at Histamine H3 receptor [2] of -0.8. Also, the Ki at Histamine H3 receptor [3] is 2.51 µM; at Histamine H4 receptor it was 0.0631 µM.

In turn, `CN1CCN(C(=O)c2nc3cc(Cl)ccc3[nH]2)CC1` had an EC50 at Histamine H3 receptor [1] of 3.16 µM. For the same compound, the Ki is 3.98 µM at Histamine H3 receptor [3] and 0.0794 µM at Histamine H4 receptor.

Take `CN1CCN(NC(=O)c2nc3cc(Cl)ccc3[nH]2)CC1`: the Ki at Histamine H4 receptor is greater than 100 µM.

`CN(C)CCCNC(=O)c1cc2cc(Cl)ccc2[nH]1` had a Ki at Histamine H4 receptor greater than 100 µM.

On Histamine H3 receptor [1], `CN1CCN(C(=O)c2cc3cc(Br)ccc3[nH]2)CC1` gave an EC50 of 1.58 µM. This compound also gave an Intrinsic activity at Histamine H3 receptor [2] of -0.7. Besides, the Ki at Histamine H3 receptor [3] was 3.16 µM; at Histamine H4 receptor, 0.0316 µM.

At Histamine H4 receptor, `CN1CCN(NC(=O)c2cc3cc(Cl)ccc3[nH]2)CC1` showed a Ki of 25.1 µM.

`CC(=O)Nc1nc2cc(Cl)ccc2[nH]1`: the Ki on Histamine H4 receptor was greater than 100 µM.

On Histamine H4 receptor, `CN(C)c1cccc(-c2nc3cc(Cl)ccc3[nH]2)c1` had a Ki greater than 100 µM.

Regarding `CN(C)CCNC(=O)c1nc2cc(Cl)ccc2[nH]1`, the concentration giving a half-maximal response (EC50) on Histamine H3 receptor [1] was 3.16 µM. Moreover, the Intrinsic activity at Histamine H3 receptor [2] is -0.5. In addition, the results for the Ki at Histamine H3 receptor [3] and at Histamine H4 receptor were 25.1 µM and 1 µM, respectively.

At Histamine H4 receptor, `CN1CCN(C(=O)Nc2nc3cc(Cl)ccc3[nH]2)CC1` showed a Ki of 20 µM.

The compound `CN(C)CCN(C)C(=O)c1cc2cc(Cl)ccc2[nH]1` showed a Ki on Histamine H4 receptor of 25.1 µM.

`CN(C)CCNC(=O)c1cc2cc(Cl)ccc2[nH]1` returned an Intrinsic activity at Histamine H3 receptor [2] of 0. Besides, the Ki on Histamine H3 receptor [3] is 5.01 µM; on Histamine H4 receptor it was 3.16 µM.

Compound `CN1CCN(C(=O)c2nc3ccc(Cl)cc3[nH]2)CC1` yielded an Intrinsic activity on Histamine H3 receptor [2] of -1.

Take `CN1CCN(C(=O)c2cc3cc(Cl)ccc3[nH]2)CC1` [JNJ-7777120]: on Histamine H3 receptor [1], the EC50 is 1 µM. Further, the Intrinsic activity on Histamine H3 receptor [2] was -0.7. On Histamine H3 receptor [3], this compound had an inhibitory constant (Ki) of 2 µM.

`O=C(c1cc2cc(Cl)ccc2[nH]1)N1CCOCC1` showed a Ki on Histamine H4 receptor greater than 100 µM.

With `CN1CCC(C(O)c2cc3cc(Cl)ccc3[nH]2)CC1` (stereo not drawn), the EC50 on Histamine H3 receptor [1] was 1 µM. The Intrinsic activity at Histamine H3 receptor [2] was -0.5. Moreover, the Ki is 1.58 µM at Histamine H3 receptor [3] and 5.01 µM on Histamine H4 receptor.

The compound `O=C(c1cc2cc(Cl)ccc2[nH]1)N1CCCCC1` showed an EC50 on Histamine H3 receptor [1] of 3.16 µM. In addition, the Intrinsic activity at Histamine H3 receptor [2] is -0.6. For the same compound, the figures for the Ki on Histamine H3 receptor [3] and on Histamine H4 receptor were 6.31 µM and 7.94 µM, respectively.
